Entries after “also recorded” stand apart in the source; their conditions may differ.
What was measured:
bovine PDE1 = assay: PDE1 enzyme assay; type: biochemical; conditions: for PDE Specificity Ratio PDE4/PDE1: from Table 1 data
human PDE2 = human PDE2 (Homo sapiens, UniProt O00408); assay: PDE2 enzyme assay; type: biochemical; conditions: for PDE Specificity Ratio PDE4/PDE2: from Table 1 data
[1] = biological target: PDE5 from human platelets (Homo sapiens, UniProt O76074); assay: PDE5 enzyme assay; type: biochemical; conditions: for PDE Specificity Ratio PDE4/PDE5: from Table 1 data
[2] = biological target: PDE3 from human platelets (Homo sapiens, UniProt Q14432); assay: PDE3 enzyme assay; type: biochemical; conditions: for PDE Specificity Ratio PDE4/PDE3: from Table 1 data
Chain of PDE3 from human platelets (Q14432 whole entry): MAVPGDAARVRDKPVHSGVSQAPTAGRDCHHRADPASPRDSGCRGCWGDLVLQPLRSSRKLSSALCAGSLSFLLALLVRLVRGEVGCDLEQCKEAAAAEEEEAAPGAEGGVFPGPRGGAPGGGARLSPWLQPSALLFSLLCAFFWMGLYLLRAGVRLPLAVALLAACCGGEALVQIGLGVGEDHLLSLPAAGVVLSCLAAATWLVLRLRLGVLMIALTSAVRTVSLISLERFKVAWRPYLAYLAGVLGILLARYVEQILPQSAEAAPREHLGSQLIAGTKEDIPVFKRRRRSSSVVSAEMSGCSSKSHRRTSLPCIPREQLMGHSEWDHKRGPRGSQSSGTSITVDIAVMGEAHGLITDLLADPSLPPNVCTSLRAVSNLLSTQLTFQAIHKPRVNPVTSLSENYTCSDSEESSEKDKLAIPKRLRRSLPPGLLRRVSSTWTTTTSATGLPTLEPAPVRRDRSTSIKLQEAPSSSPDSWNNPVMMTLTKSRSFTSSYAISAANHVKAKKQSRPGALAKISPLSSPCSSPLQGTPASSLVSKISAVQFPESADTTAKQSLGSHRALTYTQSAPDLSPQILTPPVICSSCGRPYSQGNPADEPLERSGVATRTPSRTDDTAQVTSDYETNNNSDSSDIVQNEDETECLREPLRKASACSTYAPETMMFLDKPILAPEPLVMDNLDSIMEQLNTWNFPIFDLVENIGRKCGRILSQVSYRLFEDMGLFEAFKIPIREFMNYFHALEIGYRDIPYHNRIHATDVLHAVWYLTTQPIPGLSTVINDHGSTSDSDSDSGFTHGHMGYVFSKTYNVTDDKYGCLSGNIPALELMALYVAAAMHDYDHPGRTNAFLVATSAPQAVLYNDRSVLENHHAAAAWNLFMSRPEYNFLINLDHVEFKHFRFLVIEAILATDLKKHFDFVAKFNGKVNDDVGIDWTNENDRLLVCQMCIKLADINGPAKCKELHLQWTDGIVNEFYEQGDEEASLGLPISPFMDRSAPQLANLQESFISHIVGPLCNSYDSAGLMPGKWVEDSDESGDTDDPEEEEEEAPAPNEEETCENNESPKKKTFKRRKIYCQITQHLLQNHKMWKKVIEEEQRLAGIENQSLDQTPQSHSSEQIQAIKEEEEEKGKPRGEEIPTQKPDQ

PDE4 (from U937 cells) = assay: PDE4 (U937 cell-derived) enzyme assay; type: biochemical, human; conditions: 1 μM cAMP
[3] = Stability studies of solid forms; type: physicochemical; conditions: for Stability: Analysis by XRPD (solid form after stress) / Stability: Appearance: 40° C./75% RH, 4 weeks
Experimental: Stability Studies. The stabilities of Forms A, B, C and D were studied by exposing the solid samples to the stress condition of 40° C./75% RH for four weeks. Moreover, the stabilities of Forms A, B, C and D in different solvents were studied by equilibration in different solvents at 40° C. for four weeks. The slurries then were filtered and dried in the air. Solid samples obtained from the stability experiments were analyzed by XRPD and DSC.

[4] = Hygroscopicity (DVS moisture sorption/desorption) studies; type: physicochemical; conditions: for hygroscopicity / XRPD pattern / solid form after full adsorption/desorption cycle: DVS; for hygroscopicity: 0-95% RH; for XRPD pattern / solid form after full adsorption/desorption cycle: 0-95-0% RH; for moisture sorption mass change of the starting mass: RH increased from about 0% to about 95% RH, about 25° C.
Experimental: Hygroscopicity studies. The hygroscopicity of various solid forms was studied using a Surface Measurement Systems DVS instrument. Typically a sample size of between about 10-50 mg was loaded into the DVS instrument sample pan and the sample was analyzed on a DVS automated sorption analyzer at about 25° C. The relative humidity was increased in increments of about 10% from about 0% to about 95% RH. The relative humidity was then decreased in a similar manner to accomplish a full adsorption/desorption cycle. The mass was recorded at periodic intervals throughout the experiment.

[5] = Compression studies of solid forms; conditions: 2000 psi for at least one minute
[6] = Interconversion studies of solid forms; type: physicochemical; conditions: EQ in acetone:ethanol (1:1) at 25° C., at least 2 days
Experimental: Interconversion Studies. Interconversion experiments were performed by making slurries of a solid form in a saturated solvent. The slurries were agitated for at least 2 days at about 25° C. The saturated solution was removed by filtration and the solid was dried in the air.

[7] = biological target: T1, PDE6 from bovine retinal rod outer segments (Bos taurus, UniProt P11541+P23439); assay: PDE6 enzyme assay; type: biochemical
T1 construct: PDE6 from bovine retinal rod outer segments; from tissue; host or cells: bovine retinal rod outer segments
T1 sequence (P11541 2-856 limits assumed): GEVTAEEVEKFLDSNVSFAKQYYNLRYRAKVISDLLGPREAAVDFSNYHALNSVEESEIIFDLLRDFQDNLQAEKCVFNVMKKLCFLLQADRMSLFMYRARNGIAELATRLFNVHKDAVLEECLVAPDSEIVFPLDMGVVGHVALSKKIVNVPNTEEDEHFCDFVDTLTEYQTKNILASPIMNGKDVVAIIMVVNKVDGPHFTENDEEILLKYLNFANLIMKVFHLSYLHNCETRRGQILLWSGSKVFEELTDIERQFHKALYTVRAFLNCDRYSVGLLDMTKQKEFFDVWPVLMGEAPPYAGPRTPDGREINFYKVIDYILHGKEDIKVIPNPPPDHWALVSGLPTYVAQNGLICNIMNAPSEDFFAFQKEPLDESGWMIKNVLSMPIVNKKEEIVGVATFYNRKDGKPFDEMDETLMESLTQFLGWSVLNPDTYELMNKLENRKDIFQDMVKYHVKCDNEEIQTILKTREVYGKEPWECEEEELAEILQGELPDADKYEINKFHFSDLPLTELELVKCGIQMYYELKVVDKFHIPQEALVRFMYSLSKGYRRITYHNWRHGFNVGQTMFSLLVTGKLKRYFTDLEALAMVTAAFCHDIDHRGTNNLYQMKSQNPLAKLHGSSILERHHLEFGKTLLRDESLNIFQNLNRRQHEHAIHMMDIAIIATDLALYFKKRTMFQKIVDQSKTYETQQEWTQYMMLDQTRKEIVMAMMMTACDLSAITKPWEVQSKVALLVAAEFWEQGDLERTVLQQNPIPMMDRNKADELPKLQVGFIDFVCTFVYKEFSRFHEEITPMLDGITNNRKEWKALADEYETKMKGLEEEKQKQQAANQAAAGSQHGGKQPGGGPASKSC
T1 sequence (P23439 2-850 limits assumed): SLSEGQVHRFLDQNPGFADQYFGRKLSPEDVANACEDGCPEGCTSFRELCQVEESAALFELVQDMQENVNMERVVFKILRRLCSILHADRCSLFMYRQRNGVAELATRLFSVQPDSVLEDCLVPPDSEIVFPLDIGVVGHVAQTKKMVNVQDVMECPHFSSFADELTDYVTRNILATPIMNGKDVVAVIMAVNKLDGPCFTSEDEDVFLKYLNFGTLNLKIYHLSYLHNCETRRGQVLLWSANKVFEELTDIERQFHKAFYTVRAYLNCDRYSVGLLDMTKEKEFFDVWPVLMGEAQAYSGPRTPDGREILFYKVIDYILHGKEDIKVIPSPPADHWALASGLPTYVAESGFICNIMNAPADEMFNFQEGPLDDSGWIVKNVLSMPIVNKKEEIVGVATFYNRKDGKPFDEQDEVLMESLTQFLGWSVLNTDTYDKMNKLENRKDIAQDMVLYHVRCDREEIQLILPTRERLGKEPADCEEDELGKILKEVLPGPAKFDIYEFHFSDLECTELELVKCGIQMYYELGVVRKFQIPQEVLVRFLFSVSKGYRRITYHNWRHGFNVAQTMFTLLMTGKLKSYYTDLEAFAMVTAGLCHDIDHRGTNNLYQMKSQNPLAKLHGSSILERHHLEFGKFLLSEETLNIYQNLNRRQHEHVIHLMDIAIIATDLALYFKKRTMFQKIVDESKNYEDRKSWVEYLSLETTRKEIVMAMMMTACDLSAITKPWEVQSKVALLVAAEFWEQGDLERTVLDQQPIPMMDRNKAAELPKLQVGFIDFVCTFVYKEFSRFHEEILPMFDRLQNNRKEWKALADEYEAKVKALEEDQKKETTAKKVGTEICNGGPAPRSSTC

[8] = EQ in ethanol at 40° C. for 4 weeks
[9] = EQ in heptane at 40° C. for 4 weeks
[10] = EQ in toluene at 40° C. for 4 weeks
[11] = EQ in water at 40° C. for 4 weeks

Chain of human PDE2 (O00408 whole entry): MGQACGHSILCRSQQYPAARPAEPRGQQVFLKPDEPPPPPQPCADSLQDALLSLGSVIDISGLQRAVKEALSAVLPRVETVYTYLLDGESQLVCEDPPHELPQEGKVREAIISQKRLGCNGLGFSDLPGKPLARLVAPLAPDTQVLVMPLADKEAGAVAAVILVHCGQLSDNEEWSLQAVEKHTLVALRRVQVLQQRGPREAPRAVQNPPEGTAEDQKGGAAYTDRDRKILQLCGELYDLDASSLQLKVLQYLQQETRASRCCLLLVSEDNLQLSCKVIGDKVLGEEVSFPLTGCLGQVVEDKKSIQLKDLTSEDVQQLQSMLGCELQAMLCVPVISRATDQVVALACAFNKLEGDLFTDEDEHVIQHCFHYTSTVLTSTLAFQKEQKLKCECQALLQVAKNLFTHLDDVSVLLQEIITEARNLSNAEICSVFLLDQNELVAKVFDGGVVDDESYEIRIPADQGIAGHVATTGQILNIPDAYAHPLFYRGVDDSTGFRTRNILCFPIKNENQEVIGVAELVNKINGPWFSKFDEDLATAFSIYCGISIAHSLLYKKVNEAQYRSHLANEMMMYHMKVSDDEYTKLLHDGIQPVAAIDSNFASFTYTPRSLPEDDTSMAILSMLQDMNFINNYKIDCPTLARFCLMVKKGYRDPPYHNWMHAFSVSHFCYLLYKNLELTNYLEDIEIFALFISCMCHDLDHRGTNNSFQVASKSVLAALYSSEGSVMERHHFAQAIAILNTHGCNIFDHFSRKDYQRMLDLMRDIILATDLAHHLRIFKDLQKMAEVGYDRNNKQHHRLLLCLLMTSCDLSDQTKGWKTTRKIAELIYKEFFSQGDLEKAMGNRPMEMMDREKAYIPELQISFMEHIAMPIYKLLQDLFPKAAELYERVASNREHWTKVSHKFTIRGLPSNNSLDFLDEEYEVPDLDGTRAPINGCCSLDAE

## CCOc1cc(C(CS(C)(=O)=O)N2C(=O)c3cccc(NC(C)=O)c3C2=O)ccc1OC (racemic) [Racemic Compound, 2-[1-(3-Ethoxy-4-methoxyphenyl)-2-methylsulfonylethyl]-4-acetylaminoisoindoline-1,3-dione]
Bovine PDE1
  PDE1 (% inhib at 10 μM): 9%
  PDE Specificity Ratio PDE4/PDE1: >2700 fold
Human PDE2
  PDE Specificity Ratio PDE4/PDE2: >800 fold
[1]
  PDE Specificity Ratio PDE4/PDE5: >12000 fold
[2]
  PDE Specificity Ratio PDE4/PDE3: >670 fold
PDE4 (from U937 cells)
  IC50: 81.8 nM

## CCOc1cc(C(CS(C)(=O)=O)N2C(=O)c3cccc(NC(C)=O)c3C2=O)ccc1OC (single isomer, unassigned; (+)) [Form A, (+)-2-[1-(3-ethoxy-4-methoxyphenyl)-2-methylsulfonylethyl]-4-acetylaminoisoindoline-1,3-dione]
[3]
  Stability: Analysis by XRPD (solid form after stress): stable; also recorded: Form A
  Stability: Appearance: White solid
[3]; [8]
  Stability: Analysis by XRPD (solid form after equilibration): stable; also recorded: Form F
[3]; [9]
  Stability: Analysis by XRPD (solid form after equilibration): stable; also recorded: Form A
[3]; [10]
  Stability: Analysis by XRPD (solid form after equilibration): converts to Form C
[3]; [11]
  Stability: Analysis by XRPD (solid form after equilibration): stable; also recorded: Form A
[4]
  hygroscopicity: substantially nonhygroscopic
  XRPD pattern / solid form after full adsorption/desorption cycle: substantially unchanged; also recorded: none of the forms analyzed underwent substantial solid-state transformation
  moisture sorption mass change of the starting mass: about 0.4%
[5]
  physical stability upon compression (XRPD): substantially physically stable
[6]
  Interconversion: Analysis by XRPD (solid form after equilibration): Form B

## CCOc1cc(C(CS(C)(=O)=O)N2C(=O)c3cccc(NC(C)=O)c3C2=O)ccc1OC (single isomer, unassigned; (+)) [Form C, (+)-2-[1-(3-ethoxy-4-methoxyphenyl)-2-methylsulfonylethyl]-4-acetylaminoisoindoline-1,3-dione]
[3]
  Stability: Analysis by XRPD (solid form after stress): stable; also recorded: Form C
  Stability: Appearance: Yellow solid
[3]; [8]
  Stability: Analysis by XRPD (solid form after equilibration): stable; also recorded: Form C
[3]; [9]
  Stability: Analysis by XRPD (solid form after equilibration): stable; also recorded: Form C
[3]; [10]
  Stability: Analysis by XRPD (solid form after equilibration): stable; also recorded: Form C
[3]; [11]
  Stability: Analysis by XRPD (solid form after equilibration): stable; also recorded: Form C
[4]
  hygroscopicity: substantially nonhygroscopic
  XRPD pattern / solid form after full adsorption/desorption cycle: substantially unchanged; also recorded: none of the forms analyzed underwent substantial solid-state transformation
  moisture sorption mass change of the starting mass: about 0.5%
[5]
  physical stability upon compression (XRPD): substantially physically stable
[6]
  Interconversion: Analysis by XRPD (solid form after equilibration): Form C

## CCOc1cc(C(CS(C)(=O)=O)N2C(=O)c3cccc(NC(C)=O)c3C2=O)ccc1OC (single isomer, unassigned; (+)) [Form D, (+)-2-[1-(3-ethoxy-4-methoxyphenyl)-2-methylsulfonylethyl]-4-acetylaminoisoindoline-1,3-dione]
[3]
  Stability: Analysis by XRPD (solid form after stress): stable; also recorded: Form D
  Stability: Appearance: White solid
[3]; [8]
  Stability: Analysis by XRPD (solid form after equilibration): converts to Form B
[3]; [9]
  Stability: Analysis by XRPD (solid form after equilibration): converts to Form B
[3]; [10]
  Stability: Analysis by XRPD (solid form after equilibration): converts to Form C
[3]; [11]
  Stability: Analysis by XRPD (solid form after equilibration): converts to Form B
[4]
  hygroscopicity: slightly hygroscopic
  XRPD pattern / solid form after full adsorption/desorption cycle: substantially unchanged; also recorded: none of the forms analyzed underwent substantial solid-state transformation
  moisture sorption mass change of the starting mass: about 1.5%
[5]
  physical stability upon compression (XRPD): substantially physically stable
[6]
  Interconversion: Analysis by XRPD (solid form after equilibration): Form B

## CCOc1cc([C@H](CS(C)(=O)=O)N2C(=O)c3cccc(NC(C)=O)c3C2=O)ccc1OC [Compound B]
Bovine PDE1
  PDE1 (% inhib at 10 μM): 27%
  PDE Specificity Ratio PDE4/PDE1: >50 fold
[7]; 10 μM
  PDE6 (% inhib at 10 μM): 10%
[7]; from Table 1 data
  PDE Specificity Ratio PDE4/PDE6: >250 fold
Human PDE2; 10 μM
  PDE2 (% inhib at 10 μM): 10%
Human PDE2
  PDE Specificity Ratio PDE4/PDE2: >260 fold
[1]; 10 μM
  PDE5 (% inhib at 10 μM): −9%
[1]
  PDE Specificity Ratio PDE4/PDE5: >39000 fold
[2]; 10 μM
  PDE3 (% inhib at 10 μM): 31%
[2]
  PDE Specificity Ratio PDE4/PDE3: >45 fold
PDE4 (from U937 cells)
  IC50: 611 nM
